Data on three compounds can be found in patent US20060276438A1 (priority 2004, published 2006).

Data set [1] has as its system Influenza A (H1N1; New Caledonia/20/99). As to the kind of experiment: microbe, parasite or virus in culture. Conditions: for EC50: Influenza A virus, H1N1, MDCK, MDCK cells, H1N1 New Caledonia/20/99; for antiviral activity rating in words: influenza virus A (H1N1). Type of data set: cell-based, influenza type A virus.
The subject of data set [2] is Vero cells.
The test system of data set [3] is Influenza B (Hong Kong/330/02). Put plainly: Antiviral assay in MDCK cells (CPE inhibition visual / Neutral Red), influenza B, initial and confirmatory test. The class given is cell-based, influenza type B virus. To be noted: for antiviral activity rating in words: influenza virus B. The protocol:
An antiviral test assay for the determination of the efficacy of DON was carried out according to the methods described in Furata et al., Antimicrobial Agents and Chemotherapy, 46(4):977-981 (2002). The vehicle used was Eagle's modification of minimum essential medium (EMEM). Two tests were carried out with different strains of influenza type A viruses and one test, followed by a confirmatory test, was carried out with an influenza type B virus strain. The cell type in all tests was Madin-Darby canine kidney cells (MDCK), and in all tests drug units and control units are expressed as micrograms/milliliter (μg/ml). […] The Safety Index (SI) of the drug could then be calculated according to the formula: SI═IC50/EC50. […] The Safety Index (SI) of the drug could then be calculated according to the formula: SI═IC50/ EC50, or SI═IC50/ EC90. All drug tests were carried out with stationary cells.

Data set [4] has as its system Madin-Darby canine kidney cells (MDCK). Conditions: at concentrations of 1-100 μg/ml.
Data set [5] has the same test system. As to the kind of experiment: cells. Conditions: Canis lupus familiaris.
Data set [6] deals with Influenza A (H3N2; Panama/2007/99). Put plainly: microbe, parasite or virus in culture. Type of data set: cell-based, influenza type A virus. Conditions: for EC50: MDCK cells, H3N2 Panama/2007/99; for SI (Safety Index = IC50/EC50): H3N2; for antiviral activity rating in words: influenza virus A (H3N2).
Setting [7] is: based on EC50 by CPE inhibition (visual), H1N1.
The mark [8] stands for this setting: based on EC50 by Neutral Red, H1N1.
[9] abbreviates: Influenza B virus, MDCK, CPE inhibition (visual), MDCK cells, influenza B Hong Kong/330/02, initial test, read-out: EC50.
[10] abbreviates: Influenza B virus, MDCK, Neutral Red assay, MDCK cells, influenza B Hong Kong/330/02, initial test, read-out: EC50.
The mark [11] stands for this setting: Influenza B virus, MDCK, confirmatory test, visual method, MDCK cells, influenza B Hong Kong/330/02, read-out: EC50.
Where [12] appears, read: based on EC50 by CPE inhibition (visual), influenza B initial test.
Where [13] appears, read: based on EC50 by Neutral Red, influenza B initial test.
Where [14] appears, read: read-out: IC50 (concentration toxic for 50% of MDCK host cells), in the influenza A H1N1 test, stationary cells.
Setting [15] is: read-out: IC50 (concentration toxic for 50% of MDCK host cells), in the influenza A H3N2 test, stationary cells.
[16] abbreviates: read-out: IC50 (concentration toxic for 50% of MDCK host cells), in the influenza B confirmatory test, stationary cells.
The mark [17] stands for this setting: read-out: IC50 (concentration toxic for 50% of MDCK host cells), in the influenza B initial test, stationary cells.
The mark [18] stands for this setting: Influenza A virus, H3N2, MDCK, CPE inhibition (visual), read-out: EC50.
Setting [19] is: Influenza A virus, H3N2, MDCK, Neutral Red assay, read-out: EC50.
The mark [20] stands for this setting: based on EC50 by CPE inhibition (visual).

≈ marks a conversion by molar mass, not a printed value. Where “and” joins values, the source holds several entries; their conditions need not be identical. Equal values may be shown once. Read-outs that look alike come from different tables or passages of the source. Marks after values point to notes of the source that are not given here. A value given as a limit tells only on which side of the number the result lay.

For the compound `[N-]=[N+]=CC(=O)CC[C@H](N)C(=O)O` [DON, 6-diazo-5-oxo-L-norleucine], the EC50 in data set [1] (CPE inhibition (visual)) was found to be 0.32 µg/mL (≈ 1.87 µM); in data set [1] (Neutral Red assay) it was 0.21 µg/mL (≈ 1.23 µM); in data set [3] (setting [9]), 0.032 µg/mL (≈ 0.187 µM); in data set [3] (setting [10]) it was 0.14 µg/mL (≈ 0.818 µM); in data set [3] (setting [11]), 0.18 µg/mL (≈ 1.05 µM); in data set [6] (setting [18]) it was 2.3 µg/mL (≈ 13.4 µM). In addition, the 50% effective concentration (EC50) in data set [6] (setting [19]) stood at 1.8 µg/mL (≈ 10.5 µM). The “SI (Safety Index = IC50/EC50)” value in data set [1] (setting [7]) was 312; in data set [1] (setting [8]) it was 476; in data set [3] (setting [12]) it was 3,125; in data set [3] (setting [13]), 714; in data set [3] (influenza B confirmatory test) it was >555; in data set [6] (setting [20]), 43. For the same compound, in data set [6] (based on EC50 by Neutral Red), the “SI (Safety Index = IC50/EC50)” value is 56. The “antiviral activity rating in words” value in data set [1], in data set [3] and in data set [6] was “active to highly active” throughout. Also, in data set [2], the “toxicity by neutral red assay in Vero cells compared with MDCK cells” value is given as “much greater than in MDCK cells”. Also, the 90% effect concentration (EC90) in data set [3] (Influenza B virus, MDCK) stood at 2.5 µg/mL (≈ 14.6 µM). Moreover, the “SI = IC50/EC90” value in data set [3] (influenza B confirmatory test) is listed as 40^b. Further, the “toxicity in the neutral red assay” value in data set [4] was 25-50%. Besides, the IC50 in data set [5] (setting [14]) is > 100 µg/mL; in data set [5] (setting [15]) it was ≥ 100 µg/mL; in data set [5] (setting [16]) it was > 100 µg/mL; in data set [5] (setting [17]), ≥ 100 µg/mL.

For the compound `NC(=O)c1ncn([C@@H]2O[C@H](CO)[C@@H](O)[C@H]2O)n1` [Positive control drug, ribavarin], the “SI (Safety Index = IC50/EC50)” value in data set [1] was >18; in data set [3] (setting [13]), >50 and >83; in data set [3] (influenza B confirmatory test) it was >56. Also, the EC50 is 5.5 µg/mL (≈ 22.5 µM) in data set [1] (CPE inhibition (visual)); 5.5 µg/mL (≈ 22.5 µM) in data set [1] (Neutral Red assay); 2 µg/mL (≈ 8.19 µM) in data set [3] (setting [10]); 1.8 µg/mL (≈ 7.37 µM) in data set [3] (setting [11]); 1.2 µg/mL (≈ 4.91 µM) in data set [3] (Neutral Red assay, MDCK cells, influenza B Hong Kong/330/02, initial test); 4.3 µg/mL (≈ 17.6 µM) in data set [6] (setting [19]). Also, in data set [6] (Neutral Red assay), the concentration giving a half-maximal response (EC50) is 5.5 µg/mL (≈ 22.5 µM). The 90% effect concentration (EC90) in data set [3] (Influenza B virus, confirmatory test, visual method, MDCK cells, influenza B Hong Kong/330/02, read-out: EC90) is 3.5 µg/mL (≈ 14.3 µM). Moreover, the “SI = IC50/EC90” value in data set [3] (influenza B confirmatory test) was >29^b. The IC50 in data set [5] (setting [14]), in data set [5] (setting [15]), in data set [5] (setting [16]) and in data set [5] (setting [17]) was > 100 µg/mL throughout.

With `N[C@H](C(=O)O)[C@@H]1CC(Cl)=NO1` [acivicin, (alpha-S,5S)-alpha-amino-3-chloro-2-isoxazoline-5-acetic acid], the EC50 was 2.5 µg/mL (≈ 14 µM) in data set [1] (CPE inhibition (visual)); 1.3 µg/mL (≈ 7.28 µM) in data set [1] (Neutral Red assay); 0.32 µg/mL (≈ 1.79 µM) in data set [3] (setting [9]); 0.32 µg/mL (≈ 1.79 µM) in data set [3] (setting [10]); 50 µg/mL (≈ 280 µM) in data set [6] (setting [18]); 55 µg/mL (≈ 308 µM) in data set [6] (setting [19]). Also, the “SI (Safety Index = IC50/EC50)” value in data set [1] (setting [7]) is listed as >4; in data set [1] (setting [8]), >7.7; in data set [3] (setting [12]), >312; in data set [3] (setting [13]), >312; in data set [6] (setting [20]), >2; in data set [6] (based on EC50 by Neutral Red) it was 1.8. Besides, the “antiviral activity rating in words” value is reported as “weakly active to active” in data set [1], “markedly active” in data set [3] and “not active” in data set [6]. For the same compound, the IC50 in data set [5] (setting [14]) is > 100 µg/mL; in data set [5] (setting [15]) it was ≥ 100 µg/mL; in data set [5] (setting [17]) it was ≥ 100 µg/mL.
